Experimental data published in US20220160901A1, “Stimuli-Responsive Compositions, Imaging Systems, and Methods for Using the Same for Biomedical Applications” (The Regents of the University of California, priority 2019, published 2022).

Assay: T1 values measured using NMR
Set-up: unit not given here

Substance: Fe(Me-bik)3](BF4)2.25H2O
- T1 at 23° C. (1 mg/mL): 2.9433
- T1 at 40° C. (1 mg/mL): 4.2093
- T1 at 60° C. (1 mg/mL): 5.3784
- T1 at 23° C. (2 mg/mL): 2.8944
- T1 at 40° C. (2 mg/mL): 3.9614
- T1 at 60° C. (2 mg/mL): 4.9954
- T1 at 23° C. (4 mg/mL): 2.7392
- T1 at 40° C. (4 mg/mL): 3.4784
- T1 at 60° C. (4 mg/mL): 4.2761
- T1 at 23° C. (8 mg/mL): 2.7413
- T1 at 40° C. (8 mg/mL): 3.434
- T1 at 60° C. (8 mg/mL): 4.172
